In patent publication EP4603105A1, “PHARMACEUTICAL COMPOSITION CONTAINING CYCLIC COMPOUND HAVING SELECTIVE KRAS INHIBITORY EFFECT AGAINST HRAS AND NRAS” (CHUGAI SEIYAKU KABUSHIKI KAISHA, priority 2022, dated 2024):
Read-outs that look alike come from different tables or passages of the source.

Assays:
[1] = molecular target: GDP-bound KRAS wild-type protein (Homo sapiens, UniProt P01116); assay: Binding to KRAS by surface plasmon resonance (SPR), dissociation constant KD
In short: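 Recombinant RAS proteins bearing a biotinylated Avi tag and loaded with GDP served as the captured ligand, recaptured fresh every cycle. Binding responses were referenced to an uncoated surface and a buffer-only blank cycle. Dissociation constants were obtained by 1:1 model fitting at 30°C.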

[2] = system: human lung cancer strain NCI-H441; assay: NCI-H441 cell proliferation inhibitory activity (CellTiter-Glo, 4 days); format: cell-based; settings: read-out: NCl-H441 IC50
In short: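 Step one: dispense the test compound in serial DMSO dilutions. Step three: add the reagent and measure […].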

[3] = molecular target: GDP-bound NRAS wild-type protein (Homo sapiens, UniProt P01111); assay: Binding to NRAS by surface plasmon resonance (SPR), KD and KD ratio to KRAS
Chain of GDP-bound NRAS wild-type protein (P01111 whole entry): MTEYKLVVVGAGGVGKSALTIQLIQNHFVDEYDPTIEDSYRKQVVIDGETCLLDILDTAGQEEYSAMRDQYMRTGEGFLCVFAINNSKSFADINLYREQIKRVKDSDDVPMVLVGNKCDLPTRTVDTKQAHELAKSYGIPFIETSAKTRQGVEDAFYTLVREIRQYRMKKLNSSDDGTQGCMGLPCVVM
In short: (§1)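 Biotinylated GDP-bound RAS was captured at about 100–300 RU. Running buffer: HBS pH 7.4, 10 mM MgCl2, 10 µM GDP, 1 mM DTT, 0.01% Tween 20, 4% DMSO.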

[4] = molecular target: HRAS wild-type protein (Homo sapiens, UniProt P01112); assay: Binding to HRAS by surface plasmon resonance (SPR), KD and KD ratio to KRAS
Chain of HRAS wild-type protein (P01112 whole entry): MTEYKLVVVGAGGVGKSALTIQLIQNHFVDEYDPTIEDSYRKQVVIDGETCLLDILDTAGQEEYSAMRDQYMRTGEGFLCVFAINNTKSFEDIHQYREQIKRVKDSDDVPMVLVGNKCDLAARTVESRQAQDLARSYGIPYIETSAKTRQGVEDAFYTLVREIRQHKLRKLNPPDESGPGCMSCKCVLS
In short: as §1

[5] = ratio of KD for GDP-bound NRAS wild-type protein to KD for KRAS
[6] = ratio of KD for HRAS wild-type protein to KD for KRAS
[7] = Single Cycle Kinetics, 1:1 binding model
[8] = 50% proliferation inhibitory concentration, four days
[9] = ratio of KD with respect to GDP-bound NRAS wild-type protein to KD with respect to KRAS
[10] = ratio of KD with respect to HRAS wild-type protein to KD with respect to KRAS

Chain of GDP-bound KRAS wild-type protein (P01116 1-188 isoform P01116-2): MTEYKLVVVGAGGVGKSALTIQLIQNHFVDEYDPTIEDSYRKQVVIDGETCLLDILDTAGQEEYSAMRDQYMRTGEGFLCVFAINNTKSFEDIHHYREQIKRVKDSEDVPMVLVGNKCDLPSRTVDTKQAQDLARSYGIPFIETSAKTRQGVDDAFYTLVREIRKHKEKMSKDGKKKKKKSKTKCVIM

Row | SMILES | Kd ([1]; Single Cycle Kinetics) [nM] | IC50 ([2]; NCI-H441 cells, 4 days) [nM] | Kd [1, 7] [nM] | IC50 [2, 8] [nM] | Kd ([1]; 1:1 binding model) [nM] | NRAS /KRAS [3, 5] | HRAS /KRAS [4, 6] | NRAS /KRAS [3, 9] | HRAS /KRAS [4, 10]
1 | CCO[C@@H]1C[C@H]2C(=O)NC3(CCC3)C(=O)N(C)[C@@H](C3CCCC3)C(=O)N(C)[C@H](C(=O)N3CCOCC3)CC(=O)N(C)[C@@H](CC(C)C)C(=O)N[C@@H]([C@@H](C)CC)C(=O)N3CC[C@H]3C(=O)N(C)[C@H]3CC[C@@H](C)CN(C3=O)[C@@H](Cc3ccc(C(F)(F)F)cc3)C(=O)N(C)CC(=O)N[C@@H](CCc3cc(F)c(C(F)(F)F)c(F)c3)C(=O)N2C1 [PP1373] |  |  | 0.35 | 12.2 |  |  |  | B (a compound having 3 or more and less than 10 is denoted as B) | B (a compound having 3 or more and less than 10 is denoted as B)
2 | CC[C@H](C)[C@@H]1NC(=O)[C@H](COC)N(C)C(=O)C[C@@H](C(=O)N2CCCCC2)N(C)C(=O)[C@H](C2CCCC2)N(C)C(=O)C2(CC(C)(C)C2)NC(=O)[C@@H]2C[C@@H](OC(C)C)CN2C(=O)[C@H](CCc2ccc(Cl)c(Cl)c2)NC(=O)CN(C)C(=O)[C@H](Cc2ccc(C(F)(F)F)cc2)N2CC/C=C\C[C@@H](C2=O)N(C)C(=O)CN(C)C1=O [PP2671] |  | 26.3 |  |  | 0.67 | A (a compound having 10 or more and less than 20 is denoted as A) | A (a compound having 10 or more and less than 20 is denoted as A) |  | 
3 | CCO[C@@H]1C[C@H]2C(=O)NC3(CCC3)C(=O)N(C)[C@@H](C3CCCC3)C(=O)N(C)[C@H](C(=O)N3CCCC3)CC(=O)N(C)[C@@H](CC)C(=O)N[C@@H]([C@@H](C)CC)C(=O)N(C)CC(=O)N(C)[C@H]3C/C=C\CCN(C3=O)[C@@H](CC3CCC(F)(F)CC3)C(=O)N(C)CC(=O)N[C@@H](CCc3cc(F)c(C(F)(F)F)c(F)c3)C(=O)N2C1 [PP1442] |  |  | 0.13 | 48.3 |  |  |  | A (a compound having 10 or more and less than 20 is denoted as A) | A (a compound having 10 or more and less than 20 is denoted as A)
4 | CCO[C@@H]1C[C@H]2C(=O)NC3(CCC3)C(=O)N(C)[C@@H](C3CCCC3)C(=O)N(C)[C@H](C(=O)N(C)C)CC(=O)N(C)[C@@H](CC3CCCC3)C(=O)N[C@@H]([C@@H](C)CC)C(=O)N(C)CC(=O)N(C)[C@H]3C/C=C\CCN(C3=O)[C@@H](CC3CCC(F)(F)CC3)C(=O)N(C)CC(=O)N[C@@H](CCc3cc(F)c(C(F)(F)F)c(F)c3)C(=O)N2C1 [PP1458] |  |  | 0.15 | 18.2 |  |  |  | A (a compound having 10 or more and less than 20 is denoted as A) | A (a compound having 10 or more and less than 20 is denoted as A)
5 | CCO[C@@H]1C[C@H]2C(=O)NC3(CCC3)C(=O)N(C)[C@@H](C3CCCC3)C(=O)N(C)[C@H](C(=O)N(C)C)CC(=O)N(C)[C@@H](CC3CC3)C(=O)N[C@@H]([C@@H](C)CC)C(=O)N(C)CC(=O)N(C)[C@H]3C/C=C\CCN(C3=O)[C@@H](Cc3ccc(C)cc3)C(=O)N(C)CC(=O)N[C@@H](CCc3ccc(Cl)c(Cl)c3)C(=O)N2C1 [PP1485] |  |  | 0.28 | 30.5 |  |  |  | A (a compound having 10 or more and less than 20 is denoted as A) | A (a compound having 10 or more and less than 20 is denoted as A)
6 | CC[C@H](C)[C@@H]1NC(=O)[C@H](CC)N(C)C(=O)C[C@@H](C(=O)N(C)C)N(C)C(=O)[C@H](C2CCCC2)N(C)C(=O)C2(CCC2)NC(=O)[C@H](C)N(C)C(=O)[C@H](CCc2cc(F)c(C(F)(F)F)c(F)c2)NC(=O)CN(C)C(=O)[C@H](Cc2ccc(C(F)(F)F)cc2)N2CC/C=C\C[C@@H](C2=O)N(C)C(=O)CN(C)C1=O [PP1146] |  |  | 0.32 | 202 |  |  |  | A (a compound having 10 or more and less than 20 is denoted as A) | B (a compound having 3 or more and less than 10 is denoted as B)
7 | CCC[C@H]1C(=O)N[C@@H]([C@@H](C)CC)C(=O)N(C2CC2)CC(=O)N(C)[C@H]2C/C=C\CCN(C2=O)[C@@H](Cc2ccc(C(F)F)cc2)C(=O)N(C)CC(=O)N[C@@H](CCc2cc(F)c(C(F)(F)F)c(F)c2)C(=O)N2C[C@H](OCC)C[C@H]2C(=O)NC2(CC(C)(C)C2)C(=O)N(C)[C@@H](C(CC)CC)C(=O)N(C)[C@H](C(=O)N(C)C)CC(=O)N1C [PP2527] |  | 31 |  |  | 0.65 | AA (a compound having 20 or more is denoted as AA) | A (a compound having 10 or more and less than 20 is denoted as A) |  | 
8 | CCO[C@@H]1C[C@H]2C(=O)NC3(CCC3)C(=O)N(C)[C@@H](C3CCCC3)C(=O)N(C)[C@H](C(=O)N3CCOCC3)CC(=O)N(C)[C@@H](CC(F)F)C(=O)N[C@@H]([C@@H](C)CC)C(=O)N(C)CC(=O)N(C)[C@H]3CCCCCN(C3=O)[C@@H](Cc3ccc(F)cc3)C(=O)N(C)CC(=O)N[C@@H](CCc3cc(F)c(C(F)(F)F)c(F)c3)C(=O)N2C1 [PP1177] |  |  | 0.081 | 32.5 |  |  |  | B (a compound having 3 or more and less than 10 is denoted as B) | B (a compound having 3 or more and less than 10 is denoted as B)

The next lines start with results.

Row | Kd ([1]; Single Cycle Kinetics) [nM] | IC50 ([2]; NCI-H441 cells, 4 days) [nM] | Kd [1, 7] [nM] | IC50 [2, 8] [nM] | Kd ([1]; 1:1 binding model) [nM] | SMILES | NRAS /KRAS [3, 5] | HRAS /KRAS [4, 6] | NRAS /KRAS [3, 9] | HRAS /KRAS [4, 10]
9 | 0.85 | 8 |  |  |  | CCC[C@H]1C(=O)N[C@@H](C2CCCC2)C(=O)N(C)CC(=O)N(C)[C@H]2C/C=C\CCN(C2=O)[C@@H](Cc2ccc(C(F)(F)F)cc2)C(=O)N(C)CC(=O)N[C@@H](CCc2ccc(C(F)(F)F)c(Cl)c2)C(=O)N2CC3(CC3)C[C@H]2C(=O)N(C)C2(CCC2)C(=O)N(C)[C@@H](C(CC)CC)C(=O)N(C)[C@H](C(=O)N(C)C)CC(=O)N1C [PP3321] | AA (a compound having 20 or more is denoted as AA) | A (a compound having 10 or more and less than 20 is denoted as A) |  | 
10 | 0.037 | 4.3 |  |  |  | CCC[C@H]1C(=O)N[C@@H]([C@@H](C)CC)C(=O)N(C)CC(=O)N(C)[C@H]2C/C=C\CCN(C2=O)[C@@H](Cc2ccc(C(F)(F)F)cc2)C(=O)N(C)CC(=O)N[C@@H](CCc2ccc(C(F)(F)F)c(OC)c2)C(=O)N2CC3(CC3)C[C@H]2C(=O)NC2(CCC2)C(=O)N(C)[C@@H](CC(C)(C)C)C(=O)N(C)[C@H](C(=O)N(C)C)CC(=O)N1C [PP3412] | A (a compound having 10 or more and less than 20 is denoted as A) | B (a compound having 3 or more and less than 10 is denoted as B) |  | 
11 | 1.4 | 54.9 |  |  |  | C=CC[C@H]1C(=O)N(C)[C@H](C(=O)N(C)C)CC(=O)N(C)[C@@H](CC(C)C)C(=O)N[C@@H]([C@@H](C)CC)C(=O)N(C)CC(=O)N(C)[C@H]2C/C=C\CCN(C2=O)[C@@H](Cc2ccc(C)cc2)C(=O)N(C)CC(=O)N[C@@H](CCc2ccc(C(F)(F)F)c(OC)c2)C(=O)N2C[C@H](OCC)C[C@H]2C(=O)N(C)C2(CCC2)C(=O)N1C [PP3344] | A (a compound having 10 or more and less than 20 is denoted as A) | B (a compound having 3 or more and less than 10 is denoted as B) |  | 
12 | 0.74 | 17.5 |  |  |  | CCCC[C@H]1C(=O)N[C@@H]([C@@H](C)CC)C(=O)N2CCC[C@H]2C(=O)N(C)[C@H]2C/C=C\CCN(C2=O)[C@@H](Cc2ccc(C)cc2)C(=O)N(C)CC(=O)N[C@@H](CCc2ccc(C(F)(F)F)c(OC)c2)C(=O)N2C[C@H](OCC)C[C@H]2C(=O)OC2(CCC2)C(=O)N(C)[C@@H](C2CCCC2)C(=O)N(C)[C@H](C(=O)N(C)C)CC(=O)N1C [PP3383] | A (a compound having 10 or more and less than 20 is denoted as A) | A (a compound having 10 or more and less than 20 is denoted as A) |  | 
13 | 0.81 | 41.5 |  |  |  | CCO[C@@H]1C[C@H]2C(=O)NC3(CC(C)(C)C3)C(=O)N(C)[C@@H](C3CCCC3)C(=O)N(C)[C@H](C(=O)N(C)CC)CC(=O)N(C)[C@@H]([C@H](C)OC)C(=O)N[C@@H]([C@@H](C)CC)C(=O)N(C3CC3)CC(=O)N(C)[C@H]3C/C=C\CCN(C3=O)[C@@H](Cc3ccc(C)cc3)C(=O)N(C)CC(=O)N[C@@H](CCc3ccc(C(F)(F)F)c(OC)c3)C(=O)N2C1 [PP3228] | A (a compound having 10 or more and less than 20 is denoted as A) | A (a compound having 10 or more and less than 20 is denoted as A) |  | 
14 | 0.23 | 6.5 |  |  |  | CCC[C@H]1C(=O)N[C@@H]([C@@H](C)CC)C(=O)N(C2CC2)CC(=O)N(C)[C@H]2C/C=C\CCN(C2=O)[C@@H](Cc2ccc(C(F)(F)F)cc2)C(=O)N(C)CC(=O)N[C@@H](CCc2ccc(C(F)(F)F)c(OC)c2)C(=O)N2CC[C@H](OC)[C@H]2C(=O)N(C)C2(CCC2)C(=O)N(C)[C@@H](C2CCCC2)C(=O)N(C)[C@H](C(=O)N(C)C)CC(=O)N1C [PP3239] | A (a compound having 10 or more and less than 20 is denoted as A) | A (a compound having 10 or more and less than 20 is denoted as A) |  | 
15 | 0.23 | 8.7 |  |  |  | CCC[C@H]1C(=O)N[C@@H]([C@@H](C)CC)C(=O)N(C)CC(=O)N(C)[C@H]2C/C=C\CCN(C2=O)[C@@H](Cc2ccc(C)cc2)C(=O)N(C)CC(=O)N[C@@H](CCc2cc(F)c(C(F)(F)F)c(F)c2)C(=O)N2CC3(CC3)C[C@H]2C(=O)N(C)C2(CCC2)C(=O)N(C)[C@@H](C(CC)CC)C(=O)N(C)[C@H](C(=O)N(C)C)CC(=O)N1C [PP3329] | A (a compound having 10 or more and less than 20 is denoted as A) | B (a compound having 3 or more and less than 10 is denoted as B) |  | 
